# Assay: Preliminary tests: lutein added to an aqueous solution under stirring
# Format: physicochemical
# Details: even under strong and prolonged stirring
# Excerpt: As noted, lutein, being a lipophilic molecule, is insoluble in water.
compound,measurement,value
"CC1=C[C@H](O)CC(C)(C)C1/C=C/C(C)=C/C=C/C(C)=C/C=C/C=C(C)/C=C/C=C(C)/C=C/C1=C(C)C[C@@H](O)CC1(C)C (stereo partly drawn) [lutein, β, ε-caroten-3,3′-diol]",behaviour of lutein in aqueous solution (solubility),for the most part deposits rapidly on the bottom

# From patent publication US12622881B2, “Water-soluble topical ophthalmic preparation containing lutein and production method thereof” (Omisan Farmaceutici S.R.L., priority 2021, dated 2026)
